How the values were obtained:
[1] = Decrease in nuclear foci in human DM1 fibroblast for 24 hrs by fluorescent in situ hybridization assay; assay type: functional
CDK12/Cyclin K = CDK12/Cyclin K (Homo sapiens, UniProt Q9NYV4); test: Inhibition of CDK12/cyclinK (unknown origin) using RBER-IRStide as substrate and in presence of ATP preincubated for 30 mins followed by addition of substrate measured after 1 hr by ADP-Glo reagent assay; assay type: protein-complex assay
CDK12/Cyclin K, sequence (O75909 whole entry): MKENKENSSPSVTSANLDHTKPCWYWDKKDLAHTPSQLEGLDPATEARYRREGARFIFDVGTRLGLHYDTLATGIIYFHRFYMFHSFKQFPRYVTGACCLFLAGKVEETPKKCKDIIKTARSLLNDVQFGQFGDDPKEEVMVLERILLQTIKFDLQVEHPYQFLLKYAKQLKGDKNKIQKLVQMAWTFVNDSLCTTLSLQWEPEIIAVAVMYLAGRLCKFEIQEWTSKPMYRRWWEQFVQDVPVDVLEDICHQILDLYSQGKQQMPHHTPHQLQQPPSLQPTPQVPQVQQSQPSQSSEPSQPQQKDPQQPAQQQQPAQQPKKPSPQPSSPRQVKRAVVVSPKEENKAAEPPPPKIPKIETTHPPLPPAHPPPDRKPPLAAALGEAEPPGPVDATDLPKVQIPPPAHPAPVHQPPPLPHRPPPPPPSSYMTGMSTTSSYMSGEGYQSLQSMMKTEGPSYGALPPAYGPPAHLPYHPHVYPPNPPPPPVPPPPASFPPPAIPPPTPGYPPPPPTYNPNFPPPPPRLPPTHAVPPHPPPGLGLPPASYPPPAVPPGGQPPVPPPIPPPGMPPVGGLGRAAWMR
CDK12/Cyclin K, sequence (Q9NYV4 whole entry): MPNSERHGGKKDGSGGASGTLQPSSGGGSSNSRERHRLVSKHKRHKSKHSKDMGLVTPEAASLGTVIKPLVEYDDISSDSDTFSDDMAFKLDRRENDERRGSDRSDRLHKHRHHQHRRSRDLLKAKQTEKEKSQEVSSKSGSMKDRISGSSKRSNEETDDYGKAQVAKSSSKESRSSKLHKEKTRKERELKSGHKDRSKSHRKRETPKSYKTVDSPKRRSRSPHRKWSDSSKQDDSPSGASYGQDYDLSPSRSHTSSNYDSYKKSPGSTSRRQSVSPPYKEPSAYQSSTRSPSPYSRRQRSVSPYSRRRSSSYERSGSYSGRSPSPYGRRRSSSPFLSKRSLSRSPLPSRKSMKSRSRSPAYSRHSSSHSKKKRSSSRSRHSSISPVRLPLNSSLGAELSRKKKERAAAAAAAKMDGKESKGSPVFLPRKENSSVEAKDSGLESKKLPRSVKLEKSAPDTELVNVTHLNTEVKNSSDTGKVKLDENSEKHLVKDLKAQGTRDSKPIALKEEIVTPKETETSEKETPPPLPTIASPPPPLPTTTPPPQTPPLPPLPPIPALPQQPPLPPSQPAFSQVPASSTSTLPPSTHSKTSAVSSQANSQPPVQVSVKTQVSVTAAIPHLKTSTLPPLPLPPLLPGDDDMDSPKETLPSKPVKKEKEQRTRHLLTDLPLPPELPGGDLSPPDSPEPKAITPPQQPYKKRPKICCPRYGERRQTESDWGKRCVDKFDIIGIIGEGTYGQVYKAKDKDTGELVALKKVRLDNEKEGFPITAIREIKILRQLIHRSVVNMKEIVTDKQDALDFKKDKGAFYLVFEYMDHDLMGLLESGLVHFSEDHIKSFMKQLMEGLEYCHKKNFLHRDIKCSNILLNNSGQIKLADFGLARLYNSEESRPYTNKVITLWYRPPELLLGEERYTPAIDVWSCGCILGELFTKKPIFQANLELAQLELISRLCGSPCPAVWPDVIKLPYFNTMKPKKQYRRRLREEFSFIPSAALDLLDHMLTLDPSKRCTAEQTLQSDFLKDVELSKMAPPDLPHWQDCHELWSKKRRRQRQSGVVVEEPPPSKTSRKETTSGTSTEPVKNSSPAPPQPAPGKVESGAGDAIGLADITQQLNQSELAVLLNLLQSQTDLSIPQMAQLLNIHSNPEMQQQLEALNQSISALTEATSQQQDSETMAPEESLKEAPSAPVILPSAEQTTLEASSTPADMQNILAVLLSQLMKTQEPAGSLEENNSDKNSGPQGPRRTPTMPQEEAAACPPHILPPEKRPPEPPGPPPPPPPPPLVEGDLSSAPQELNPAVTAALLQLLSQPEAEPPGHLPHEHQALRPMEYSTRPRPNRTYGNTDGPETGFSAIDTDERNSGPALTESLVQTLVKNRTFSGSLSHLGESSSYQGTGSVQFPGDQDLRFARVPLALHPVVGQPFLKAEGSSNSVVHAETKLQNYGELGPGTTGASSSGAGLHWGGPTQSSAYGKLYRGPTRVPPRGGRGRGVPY

| SMILES | IC50 [1] [nM] | IC50 (CDK12/Cyclin K) [nM] |
| --- | --- | --- |
| C=CC(=O)N1CCC[C@@H]1C(=O)NCCc1cc2c(-c3cnn4ncccc34)ccnc2[nH]1 | < 1000 | – |
| C=CC(=O)Nc1cc(C(=O)N2CCC(c3cc4c(-c5cnn6ncccc56)ccnc4[nH]3)C2)ccc1OC (stereo not drawn) | < 1000 | – |
| C/C=C/C(=O)N1CCC[C@H]1C(=O)NCCc1cc2c(-c3cnn4ncccc34)ccnc2[nH]1 | 1000 | – |
| C=CC(=O)N1CCOC[C@@H]1C(=O)NCCc1cc2c(-c3cnn4ncccc34)ccnc2[nH]1 | < 1000 | – |
| c1cnn2ncc(-c3ccnc4[nH]ccc34)c2c1 | < 1000 | – |
| C=CC(=O)N1CCC[C@H]1C(=O)NCCc1cc2c(-c3cnn(C)c3)ccnc2[nH]1 | 10000 | – |
| c1cnn2ncc(-c3ccnc4[nH]c(CN5CCNCC5)cc34)c2c1 | – | ≥ 1000 |
| C=CC(=O)N1CC2(CC2)C[C@H]1C(=O)NCCc1cc2c(-c3cnn4ncccc34)ccnc2[nH]1 | 1000 | – |
| OCc1cc2c(-c3cnn4ncccc34)ccnc2[nH]1 | 1000 | – |
| CN(C)C/C=C/C(=O)N1CCC(CC(=O)N2CCC(c3cc4c(-c5cnn6ncccc56)ccnc4[nH]3)C2)CC1 (stereo not drawn) | 10000 | – |
| C=CC(=O)N1CCC1C(=O)NCCc1cc2c(-c3cnn4ncccc34)ccnc2[nH]1 (single isomer, unassigned) | < 1000 | – |
| CC(C)(CCl)C(=O)N1CCC[C@H]1C(=O)NCCc1cc2c(-c3cnn4ncccc34)ccnc2[nH]1 | 10000 | – |
| C=CC(=O)Nc1cccc(C(=O)NCCc2cc3c(-c4cnn5ncccc45)ccnc3[nH]2)c1 | < 1000 | – |
| C=CC(=O)N1CCC[C@@H](C(=O)NCCc2cc3c(-c4cnn5ncccc45)ccnc3[nH]2)C1 | 1000 | – |
| c1cc(-c2ccc3[nH]nnc3c2)c2cc[nH]c2n1 | 10000 | – |
| NC(=O)c1cc2c(-c3cnn4ncccc34)ccnc2[nH]1 | 1000 | – |
| C=CC(=O)N1CCC[C@H]1C(=O)OCCc1cc2c(-c3cnn4ncccc34)ccnc2[nH]1 | < 1000 | – |
| C=CC(=O)N1CCC[C@@H]1C(=O)NCCc1cc2c(-c3cnn4ncccc34)c(Cl)cnc2[nH]1 | < 1000 | – |
| c1ccc(Cc2cc3c(-c4cnn5ncccc45)ccnc3[nH]2)cc1 | 10000 | – |
| O=C(CCl)Nc1cccc(C(=O)N2CC[C@@H](c3cc4c(-c5cnn6ncccc56)ccnc4[nH]3)C2)c1 | < 1000 | – |

| SMILES | IC50 [1] [nM] | IC50 (CDK12/Cyclin K) [nM] |
| --- | --- | --- |
| C=CC(=O)Nc1ccc(C(=O)N2CCC(c3cc4c(-c5c[nH]c6ccccc56)ccnc4[nH]3)C2)cc1 (stereo not drawn) | 1000 | – |
| CC(C)=CC(=O)N1CCC[C@H]1C(=O)NCCc1cc2c(-c3cnn4ncccc34)ccnc2[nH]1 | 1000 | – |
| c1cc(-c2ccc3cn[nH]c3c2)c2cc[nH]c2n1 | 10000 | – |
| N#CN1CCC[C@H](C(=O)NCCc2cc3c(-c4cnn5ncccc45)ccnc3[nH]2)C1 | 1000 | – |
| C=CC(=O)N1CCC[C@H](C(=O)NCCc2cc3c(-c4cnn5ncccc45)c(Cl)cnc3[nH]2)C1 | 1000 | – |
| C=CC(=O)Nc1ccc(C(=O)NCCc2cc3c(-c4cnn5ncccc45)ccnc3[nH]2)cc1 | < 1000 | – |
| O=C(CCl)Nc1cccc(C(=O)N2CCC(c3cc4c(-c5cnn6ncccc56)ccnc4[nH]3)C2)c1 (stereo not drawn) | < 1000 | – |
| CN(C)C/C=C/C(=O)N1CC[C@@H](OCC(=O)N2CCC(c3cc4c(-c5cnn6ncccc56)ccnc4[nH]3)C2)C1 (stereo partly drawn) | 1000 | – |
| CN(C)C/C=C/C(=O)N1CCC[C@@H](C(=O)N2CCC(c3cc4c(-c5cnn6ncccc56)ccnc4[nH]3)C2)C1 (stereo partly drawn) | 1000 | – |
| O=C(CCl)Nc1ccc(C(=O)N2CCC(c3cc4c(-c5cnn6ncccc56)ccnc4[nH]3)C2)cc1 (stereo not drawn) | < 1000 | – |
| C=C(C)C(=O)N1CCC[C@H]1C(=O)NCCc1cc2c(-c3cnn4ncccc34)ccnc2[nH]1 | 10000 | – |
| CCC(=O)N1CCC[C@H]1C(=O)NCCc1cc2c(-c3cnn4ncccc34)ccnc2[nH]1 | 10000 | – |
| C=CC(=O)NC(Cc1ccccc1)C(=O)NCCc1cc2c(-c3cnn4ncccc34)ccnc2[nH]1 (stereo not drawn) | 1000 | – |
| C=CC(=O)N1CCC[C@H]1C(=O)N1CCN(Cc2cc3c(-c4cnn5ncccc45)ccnc3[nH]2)CC1 | 10000 | – |
| C=CC(=O)Nc1cccc(C(=O)N2CCN(Cc3cc4c(-c5cnn6ncccc56)ccnc4[nH]3)CC2)c1 | 1000 | – |
| C#CC(=O)Nc1cccc(C(=O)N2CCC(c3cc4c(-c5cnn6ncccc56)ccnc4[nH]3)C2)c1 (stereo not drawn) | < 1000 | – |
| C=CC(=O)Nc1ccc(C(=O)NCc2cc3c(-c4cnn5ncccc45)ccnc3[nH]2)cc1 | 1000 | – |
| CN(C)C/C=C/C(=O)N1CCC[C@H]1C(=O)NCCc1cc2c(-c3cnn4ncccc34)ccnc2[nH]1 | 10000 | – |
| C=CC(=O)Nc1ccc(C(=O)N2CCN(Cc3cc4c(-c5cnn6ncccc56)ccnc4[nH]3)CC2)cc1 | 1000 | – |
| C=CC(=O)N1CCC[C@H]1C(=O)NCCc1cc2c(-c3cnn4ncccc34)ccnc2[nH]1 | < 1000 | – |

| SMILES | IC50 [1] [nM] | IC50 (CDK12/Cyclin K) [nM] |
| --- | --- | --- |
| CNC(=O)c1cc2c(-c3cnn4ncccc34)ccnc2[nH]1 | 1000 | – |
| C=CC(=O)N1C[C@H](F)C[C@H]1C(=O)NCCc1cc2c(-c3cnn4ncccc34)ccnc2[nH]1 | < 1000 | – |
| C=CC(=O)N1CC(C(=O)NCCc2cc3c(-c4cnn5ncccc45)ccnc3[nH]2)C1 | 1000 | – |
| O=C(CCl)Nc1cccc(C(=O)N2CC[C@H](c3cc4c(-c5cnn6ncccc56)ccnc4[nH]3)C2)c1 | < 1000 | – |
| C[C@@H](Cl)C(=O)N1CCC[C@@H]1C(=O)N1CCC(c2cc3c(-c4cnn5ncccc45)ccnc3[nH]2)C1 (stereo partly drawn) | 1000 | – |
| C=CC(=O)N1CCC[C@H](C(=O)NCCc2cc3c(-c4cnn5ncccc45)ccnc3[nH]2)C1 | < 1000 | – |
| COc1ccc2c(-c3ccnc4[nH]ccc34)cnn2n1 | 10000 | – |
| C=CC(=O)Nc1cccc(C(=O)N2CC[C@H](c3cc4c(-c5cnn6ncccc56)ccnc4[nH]3)C2)c1 | < 1000 | – |
| C=CC(=O)Nc1ccc(C(=O)N2CCC(c3cc4c(-c5cnn6ncccc56)ccnc4[nH]3)C2)cc1 (stereo not drawn) | < 1000 | – |
| CN(C)C/C=C/C(=O)Nc1ccc(C(=O)N2CCC(c3cc4c(-c5cnn6ncccc56)ccnc4[nH]3)C2)cc1 (stereo not drawn) | < 1000 | – |
| C=CC(=O)NC(C)C(=O)NCCc1cc2c(-c3cnn4ncccc34)ccnc2[nH]1 (stereo not drawn) | 1000 | – |
| CN(C)C/C=C/C(=O)Nc1cccc(C(=O)NCCc2cc3c(-c4cnn5ncccc45)ccnc3[nH]2)c1 | 10000 | – |
| C=CC(=O)Nc1cccc(C(=O)N2CCC(c3cc4c(-c5cnn6ncccc56)ccnc4[nH]3)C2)c1 (stereo not drawn) | < 1000 | – |
| C=CC(=O)N1CCC[C@H]1C(=O)N1CC[C@@H](c2cc3c(-c4cnn5ncccc45)ccnc3[nH]2)C1 | < 1000 | – |
| O=C([C@H]1CCCN1C(=O)CCl)N1CCC(c2cc3c(-c4cnn5ncccc45)ccnc3[nH]2)C1 (stereo partly drawn) | < 1000 | – |
| CC#CC(=O)N1CCC[C@H]1C(=O)NCCc1cc2c(-c3cnn4ncccc34)ccnc2[nH]1 | 1000 | – |
| Cc1cc2c(-c3cnn4ncccc34)ccnc2[nH]1 | < 1000 | – |
| C=CC(=O)N1CCCC[C@H]1C(=O)NCCc1cc2c(-c3cnn4ncccc34)ccnc2[nH]1 | 1000 | – |
